What was measured:
[1] = system: mouse hepatoma cells; assay: Anti-cancer effect, cultured mouse hepatoma cells; format: cell-based; details: compared with keratinocytes treated with Yoshixol
[2] = system: primer (SEQ ID NO: 2) and snake DNA; assay: PCR with primer or DNA template treated with Yoshixol; format: biochemical
Protocol: Effect of Yoshixol on PCR was investigated by DNA template which was extracted from snake (blue-green snake, captured at Matsumoto city, Nagano). The new synthesized dimer of (SEQ ID NO: 2) (5′>CTTCGGGCTTCGGG<3′) with 7 base-pair alignment (CTTCGGG) above-mentioned was used as a primer. PCR reaction was done by use of DNA thermal cycler (PJ-2000) made in PERKIN ELMER CETUS company. The following six combinations were prepared for the test samples. Those are two kinds of samples which consist of 5 μl of primer (100 pico mole/μl) with 5 μl of Yoshixol (P+) and without Yoshixol (P−). In addition, two kinds of samples which consist of 5 μl. of snake DNA (500 ng/μl) with 5 μl of Yoshixol (D+) and without Yoshixol (D−). And, additional two kinds of samples which consist of 1 μl of polymerase enzymes (Recombinant Taq DNA Polymerase, No. R001A, TaKaRa Shuzo Co., Otsu city: 5 unit/pd) with 1 μl of Yoshixol (Pm+) and without Yoshixol (Pm−). After each sample was placed for 10 minutes at room temperature, each sample was diluted in distilled water. And, it is adjusted in a primer solution of 10 picomole/μl, DNA solution of 50 ng/μl and a polymerase enzymes solution of 0.5 unit/μl. Then, the following combinations were prepared. […] In each combination, amount of cDNA synthesis was amplified by a PCR method and was measured. […]

[3] = system: nitric oxide (NO); assay: Involvement of nitric oxide, NG-methyl-L-arginine (NMLA) as blocking agent; details: 4 μl of NMLA (1 mol) added; compared to Yoshixol alone
Protocol: Recent interest has been focused recently in effects of nitric oxide (NO) which is generated in body. Such effects are anticancer effect, bactericidal effect, inhibitory effect of antigen-antibody reaction and cardiovascular effect. […] When 4 μl of NMLA (1 mol) was added in the each test sample with and without Yoshixol, blood aggregation effect, effect of fibrin formation and bactericidal effect of Yoshixol were decreased by 10-20% comparing to effect of Yoshixol alone.

C=C1CC(C)(C)C=CC1=O [Yoshixol, 4,4-dimethyl-6-methylene-2-cyclohexen-1-one]
structure between cells and cellular aspect [1]: observations similar to the above were found | PCR bounds versus P−, D−, Pm−, group P+, D−, Pm− ([2]; only primer processed by Yoshixol (5 μl with 5 μl)): did not differ | PCR bounds versus P−, D−, Pm−, group P−, D+, Pm− ([2]; only snake DNA processed by Yoshixol (5 μl with 5 μl)): did not differ | decrease of blood aggregation effect, effect of fibrin formation and bactericidal effect of Yoshixol [3]: 10-20%
